{"source": "the NIST ThermoML archive (doi:10.1016/j.jct.2018.12.044)", "settings": "Crystal; DTA", "note": "Numbers after ± are expanded uncertainties.", "data": [{"molecule": "CC[C@H]1OC(=O)[C@H](C)[C@@H](O[C@H]2C[C@@](C)(OC)[C@@H](O)[C@H](C)O2)[C@H](C)[C@@H](O[C@@H]2O[C@H](C)C[C@H](N(C)C)[C@H]2O)[C@](C)(O)C[C@@H](C)[C@@H]2N[C@@H](COCCOC)O[C@H]([C@H]2C)[C@]1(C)O", "note": "[Dirithromycin]", "values": [{"measurement": "Normal melting temperature", "result": "194.36 ± 6", "unit": "°C"}]}]}
